# Where two headings read alike, the source gives them in different places.
# Test system: oseltamivir-sensitive (WSN^274H) and oseltamivir-resistant (WSN^274Y) H1N1 influenza viruses
# Type: binding, H1N1 influenza virus
structure (smiles),measurement,setting,value
"C#CCCC(=O)NC1C(O)C(F)C(F)(C(=O)O)OC1[C@H](O)[C@H](O)CO (stereo partly drawn) [DFSA-5-yne, 5-(Pent-4-ynamido)-2,3,5-trideoxy-3-fluoro-D-erythro-β-L-manno-non-2-ulopyranosylonic fluoride]",labeling of OS^s and OS^r H1N1 influenza viruses,in the absence of OS,labeled
same,labeling of OS^s and OS^r H1N1 influenza viruses,in the presence of competing OS,only the OS^r virus was detectable
